How the values were obtained:
Fructobacillus sp. = test: Antibiotic sensitivity test, soft agar overlay with antibiotic discs; assay type: cell-based; settings: Fructobacillus soft MRS agar overlay, disc content 5-30 mcg as given per antibiotic; for Zone of Inhibition: BBL Sensi-Disc
Experimental: Evolutionary analyses were conducted in MEGA6 using the 16S rRNA gene sequences and using a Maximum Likelihood method based on the General Time Reversible Model with a gamma distribution, invariable sites and 100 bootstrap replicates (Tamura et al. (2013) Mol Biol Evol, 30:2725-2729). For antibiotic sensitivity tests, overnight cultures of Fructobacillus sp. were mixed with soft MRS agar and overlayed onto MRS plates onto which an antibiotic impregnated disc had been placed. Diameters of zones of inhibition were measured around each antibiotic disc using a ruler. Antibiotics used were BBL Sensi-Disc tetracycline 30 mcg, ampicillin with sulbactam 20 mcg, rifampin 5 mcg, ciprofloxacin 5 mcg, and vancomycin 30 mcg.
Honey bees are commonly prophylactically treated with oxytetracycline for the prevention of foulbrood diseases caused by the bacteria Melissococcus plutonius and Paenibacillus larvae. […] The bacterial strain's resistance to antibiotics was determined, as treatment might alter the abundance of Fructobacillus in the hive. Using soft agar overlays, Fructobacillus cultures were exposed to five different antibiotics (tetracycline, ampicillin (with sulbactam), rifampicin, ciprofloxacin, and vancomycin), and the resulting zones of inhibition were measured (Table 3). […] These two antibiotics are commonly used in agriculture.

Fructobacillus FJL = test: Carbon source utilization assay (Biolog MT2 plates); assay type: cell-based; settings: 2% carbohydrate, Biolog MT2, 30° C. aerobic; versus water-only controls, unpaired t-test p≦0.001
Experimental: The same Fructobacillus isolate as used for co-culture assays was grown for 72 hours in MRS broth at 30° C. under aerobic conditions. Cells were pelleted via centrifugation and the supernatant was removed. The pellet was resuspended in a buffer of 0.1M Tris-HCl (pH 6.5). This centrifugation and resuspension process was performed twice to ensure removal of all residual MRS. 15 μl of cell suspension was added to each well of a Biolog MT2 plate (Biolog Inc.). To this, 150 μl of 2% carbohydrate solutions were added to the wells, with each carbohydrate repeated in triplicate. Additionally, water control wells were established in triplicate, inoculated with cell suspension and filtered, autoclaved water. […] Plates were read via spectrophotometry at A590 immediately following inoculation in order to establish as baseline. Plates were incubated aerobically at 30° C., and A590 readings were taken every 24 hours. […] To assess whether a carbon source was utilized, absorbance readings from time points with peak absorbance were compared to absorbance of the initial time point. Absorbance in water control wells was subtracted from absorbance in carbohydrate containing wells. […] A carbon source was determined to have been utilized by Fructobacillus if the difference was statistically significant with a p-value of 0.001 or lower.

SMILES	Zone of Inhibition (Fructobacillus sp.) [mm]	Interpretation (antibiotic sensitivity) (Fructobacillus sp.)	Utilization of carbon source by Fructobacillus (Fructobacillus FJL)
CN(C)[C@@H]1C(O)=C(C(N)=O)C(=O)[C@@]2(O)C(O)=C3C(=O)c4c(O)cccc4[C@@](C)(O)[C@H]3C[C@@H]12 [Tetracycline]	32	–	–
CN[C@H](CC(C)C)C(=O)N[C@H]1C(=O)N[C@@H](CC(N)=O)C(=O)N[C@H]2C(=O)N[C@H]3C(=O)N[C@H](C(=O)N[C@H](C(=O)O)c4cc(O)cc(O)c4-c4cc3ccc4O)[C@H](O)c3ccc(c(Cl)c3)Oc3cc2cc(c3O[C@@H]2O[C@H](CO)[C@@H](O)[C@H](O)[C@H]2O[C@H]2C[C@](C)(N)[C@H](O)[C@H](C)O2)Oc2ccc(cc2Cl)[C@H]1O [Vancomycin]	0	Resistant	–
O=C(O)c1cn(C2CC2)c2cc(N3CCNCC3)c(F)cc2c1=O [Ciprofloxacin]	9	Resistant	–
O=C(CO)[C@@H](O)[C@H](O)[C@H](O)CO [fructose]	–	–	capable of utilizing
CO[C@H]1/C=C/O[C@@]2(C)Oc3c(C)c(O)c4c(O)c(c(/C=N/N5CCN(C)CC5)c(O)c4c3C2=O)NC(=O)/C(C)=C\C=C\[C@H](C)[C@H](O)[C@@H](C)[C@@H](O)[C@@H](C)[C@H](OC(C)=O)[C@@H]1C [Rifampin]	25	Susceptible	–

From US20160081309A1, “FRUCTOBACILLUS AS A PROBIOTIC FOR HONEYBEES” (Indiana University Research & Technology Corporation, priority 2014, published 2016)
